Measured values published in US11976063B2, “Pharmaceutical composition comprising berberine and ursodeoxycholic acid for the treatment of various diseases or disorders” (priority 2014, dated 2024).
Structures can show the parent of a compound that is named as a salt.

Assays:
[1] = system: high fat diet (HFD) induced non-alcoholic fatty liver mice; assay: High fat diet induced non-alcoholic fatty liver mice model (Example 5); format: in vivo, NIH male mice
Text: This example describes an in vivo efficacy study of BUDCA disclosed in the present invention using a high fat diet (HFD) induced non-alcoholic fatty liver mice model.
91 NIH male mice of 4 weeks old were obtained from Vital River Laboratories (Beijing, China). After acclimatization for one week, 13 mice were selected as control group (Group 1, G1) with normal chow diet fed, and the other 78 mice were fed with HFD (in which 40% of calories is from fat) for 4 weeks to establish an animal model resembling the pathophysiology of non-alcoholic fatty liver in human.
Following 4 weeks of high fat dietary intervention, the 78 mice were divided into 6 groups according to body weight (n=13 per group): • Group 2, G2: Vehicle control (0.5% CMC-Na solution) • Group 3, G3: Low-dose group of BUDCA (30 mg/kg) • Group 4, G4: Middle-dose group of BUDCA (100 mg/kg) • Group 5, G5: High-dose group of BUDCA (300 mg/kg) • Group 6, G6: BBR control group (Berberine HCl, 150 mg/Kg) • Group 7, G7: UDCA control group (Ursodeoxycholic acid, 150 mg/Kg)
The mice from G2 to G7 were administered with the corresponding testing articles indicated above once daily by intragastric gavage. HFD continued throughout the duration of the treatment of 6 weeks. The normal mice (G1) were treated with vehicle (0.5% CMC-Na solution) via intragastric gavage. At the end of experiment, the following biochemical parameters were measured and tests were carried out: • Body weight, the weight ratio of liver • Total cholesterol (TC) and triglyceride (TG) levels, high density lipoprotein cholesterol (HDL-C) and low density lipoprotein cholesterol (LDL-C) levels • Alanine aminotransferase (ALT) and aspartate aminotransferase (AST) levels • Superoxide dismutase (SOD) activity and malondialdehyde (MDA) level • Oral glucose tolerance test (OGTT) • Histopathological examination of liver ([…] staining)
After 6 weeks treatment, blood was collected via retro-orbital bleeding of each 12-hour fasted animal. Liver was harvested by surgery for histopathology analysis after weight measurement. Then the serum was isolated for the determination of TC, TG, HDL-C, LDL-C, ALT, AST, SOD and MDA.
One week before sacrifice (Week 5 of treatment), an oral glucose tolerance test (OGTT) was performed in 12-hour fasted animals. For the OGTT, all mice received an oral glucose challenge at 2.0 g/Kg and the blood glucose concentrations were determined by glucometer (ACCU-CHEK Active, Roche) at 0, 30, 60, 90 and 120 min.
The liver tissue was histopathologically evaluated by […] staining after frozen section.

[2] = system: high fat diet (HFD) and streptozotocin (STZ) induced diabetic mice; format: in vivo
Experimental: This example describes an in vivo efficacy study of the combinations disclosed in the present invention using a high fat diet (HFD) and streptozotocin (STZ) induced diabetic mice model.
Sixty NIH male mice of 4 weeks old were acquired from Guangzhou Institute of Laboratory Animal. After acclimatization for one week, five mice were selected as normal control group (Group 1), the rest fifty-five mice were administered single dose of STZ at the dose of 40 mg/kg, and fed with HFD (in which 40% of calories is from fat) for 7 days to establish a diabetic animal model resembling the pathophysiology of type 2 diabetes in human. Mice in the normal control group were not administered STZ, and fed with normal chow diet.
The mice from Group 2 to 5 were treated with the corresponding testing articles indicated above once daily by intragastric gavage. HFD continued throughout the duration of the treatment of 28 days. The normal mice (Group 1) were treated with normal saline by intragastric gavage. Fasting blood glucose, total cholesterol (TC) and triglyceride (TG) levels, food intake, water intake and body weight were measured throughout the study.
(§1) On day 28 of the treatment, an oral glucose tolerance test (OGTT) was performed in 12-hour fasted animals. For the OGTT, after the measurement of the basal glucose concentration (T=−30 min), mice received an oral glucose challenge at 2.5 g/kg and glucose values were determined by glucometer (ACCU-CHEK Active, Roche) at 0, 30, 60 and 120 min.
After OGTT, blood samples were collected for the measurement of blood glucose, TC and TG. The mice were sacrificed, and the pancreas, liver, kidney and fat were harvested for histopathology analysis.

[3] = system: high fat diet (HFD) induced obesity mice; assay: High fat diet induced obesity mice model (Example 2); format: in vivo, NIH male mice; settings: used individually at 50 mg/Kg, once daily i.g., interim results at 15 days
Text: This example describes an in vivo efficacy study of the combinations disclosed in the present invention using a high fat diet (HFD) induced obesity mice model.
Fifty NIH male mice of 4 weeks old were acquired (Guangzhou Institute of Laboratory Animal). After acclimatization for one week, eight mice were selected as normal control; the rest forty-two mice were fed with HFD (in which 40% of calories is from fat) for 14 days to establish a HFD induced obesity mice model resembling the pathophysiology of metabolic syndrome in human. Normal control mice were fed with normal chow diet. […]
The mice from Group 1 to 4 were treated with the corresponding testing articles indicated above once daily by intragastric gavage. […] Blood glucose (fasting and non-fasting), total cholesterol (TC) and triglyceride (TG) levels, food intake, water intake and body weight were measured throughout the study.
as §1, with “g/Kg” for “g/kg”, “min. […]” for “min.”

[4] = 150 mg/Kg (G6 Berberine HCl; G7 UDCA), i.g. once daily, 6 weeks, HFD, mean ± S.E.M
[5] = serum, 150 mg/Kg (G6 Berberine HCl; G7 UDCA), i.g. once daily, 6 weeks, HFD, mean ± S.E.M
[6] = Day 0 (before treatment), same doses
[7] = Day 3, same doses, once daily i.g.
[8] = Day 27, same doses, once daily i.g.
[9] = Day 28, same doses, once daily i.g.

Compound	Body weight [1, 4] [g]	Weight ratio of liver [1, 4] [%]	ALT [1, 5] [U/L]	AST [1, 5] [U/L]	HDL-C [1, 5] [mmol/L]	LDL-C [1, 5] [mmol/L]	SOD [1, 5] [U/mL]	TC [1, 5] [mmol/L]	TG [1, 5] [mmol/L]	Pharmacological effects comparing to the vehicle control group [3]	further results
COc1ccc2cc3[n+](cc2c1OC)CCc1cc2c(cc1-3)OCO2 [Berberine HCl, reference compound]	42.4 ± 1.37	4.26 ± 0.12	37.1 ± 4.08	198.7 ± 18.93	2.47 ± 0.20	1.42 ± 0.21	77.03 ± 8.98	5.97 ± 0.47	1.00 ± 0.08		MDA [1, 5]: 9.3 ± 2.14 µM
CN(C)C(=N)NC(=N)N [Metformin, N,N-Dimethylimidodicarbonimidic diamide]											Effect on symptoms of diabetes (overall efficacy) ([2]; 28 days treatment, HFD/STZ mice): did not demonstrate a clear efficacy; Fasting blood glucose, Day 0 ([2]; Day 0 (before treatment), metformin 300 mg/kg, berberine 150 + UA 150 mg/kg, berberine 150 + EPA 75 + DHA 75 mg/kg): 24.08 ± 5.44 mmol/L; Weight, Day 0 ([2]; Day 0 (before treatment), metformin 300 mg/kg, berberine 150 + UA 150 mg/kg, berberine 150 + EPA 75 + DHA 75 mg/kg, once daily i.g.): 26.30 ± 2.54 g; Total Cholesterol, Day 0 [2, 6]: 297.96 ± 67.09 mg/dL; Triglyceride, Day 0 [2, 6]: 2.40 ± 1.03 mmol/L; Food Intake, Day 3 [2, 7]: 8.66 g; Water intake, Day 3 [2, 7]: 19.40 mL; Water intake, Day 6 ([2]; Day 6, same doses, once daily i.g.): 23.60 mL; Weight, Day 27 ([2]; Day 27, metformin 300 mg/kg, berberine 150 + UA 150 mg/kg, berberine 150 + EPA 75 + DHA 75 mg/kg, once daily i.g.): 36.99 ± 3.90 g; Food Intake, Day 27 [2, 8]: 9.37 g; Water intake, Day 27 [2, 8]: 34.40 mL; Fasting blood glucose, Day 28 [2, 9]: 21.66 ± 4.71 mmol/L; Total Cholesterol, Day 28 [2, 9]: 436.99 ± 159.73 mg/dL; Triglyceride, Day 28 [2, 9]: 6.06 ± 6.71 mmol/L
C[C@H](CCC(=O)O)[C@H]1CC[C@H]2[C@@H]3[C@@H](O)C[C@@H]4C[C@H](O)CC[C@]4(C)[C@H]3CC[C@]12C [UDCA, 3α,7β-dihydroxy-5β-cholan-24-oic acid, reference compound]	42.0 ± 1.16	4.77 ± 0.26	30.6 ± 5.73	162.86 ± 29.42	2.13 ± 0.33	1.37 ± 0.26	44.75 ± 11.99	4.77 ± 0.70	1.20 ± 0.22		
COc1ccc2cc3[n+](cc2c1OC)CCc1cc2c(cc1-3)OCO2 [berberine, 5,6-dihydro-9,10-dimethoxybenzo[g]-1,3-benzodioxolo[5,6-a]quinolizinium]										neither berberine (Group 2), nor hydroxycitric acid (Group 3) demonstrated any pharmacological effects	Animals showing gastrointestinal side effects at the time of sacrifice ([1]; berberine treatment group (150 mg/Kg), 6 weeks i.g.): 50 % of animals
O=C(O)CC(O)(C(=O)O)C(O)C(=O)O (stereo not drawn) [hydroxycitric acid, 1,2-dihydroxypropane-1,2,3-tricarboxylic acid]										neither berberine (Group 2), nor hydroxycitric acid (Group 3) demonstrated any pharmacological effects	
